Results published in patent publication US20200163984A1, “USE OF ISOVALERYL SPIRAMYCIN I, II AND/OR III IN MANUFACTURING MEDICAMENT FOR TREATING AND/OR PREVENTING TUMOR, AND MEDICAMENT” (SHENYANG FUYANG PHARMACEUTICAL TECHNOLOGY CO., LTD., priority 2017, published 2020).

Key:
[1] = system: transplanted tumor of human pancreatic cancer cell PANC-1; assay: PANC-1 transplanted tumor in nude mice; conditions: for Tumor Volume (mm3) (d 1): d1
Experimental: Then cell concentration was adjusted to 1×10^7/ml with matrigel, then each nude mouse was inoculated subcutaneously with 0.2 ml of cells at its right armpit and recorded as the first day of inoculation. When the tumor grows to be greater than or equal to 100 mm^3, the mice were randomly divided into 11 groups with 6 mice in each group: a model group, a cyclophosphamide group, isovaleryl spiramycin I groups with doses of 25, 50 and 100 mg/kg, isovaleryl spiramycin II groups with doses of 25, 50 and 100 mg/kg, and isovaleryl spiramycin III groups with doses of 25, 50 and 100 mg/kg. Each group was continuously administered intragastrically for 30 days with a dose of 20 ml/kg. The mice were sacrificed the next day after drug withdrawal and the indicators were tested. The long diameter and short diameter of the tumor, and the body weight of each mouse were recorded every 3 days from drug administration to nude mouse sacrifice.
The body weight of the nude mice and the long diameter (a) and short diameter (b) of the transplanted tumor were measured every 3 days, and the tumor volume (v), relative tumor volume (RTV) and relative tumor proliferation rate (T/C) are calculated respectively according to the following formulas, wherein V=a×b^2/2; RTV=V/V0 (V0 is the tumor volume before administration, V is the tumor volume before sacrifice), and T/C (%)=treatment group RTV/model control group RTV×100%.
Each mouse was weighed and sacrificed. After the tumor was completely stripped off from the body of the mouse, the non-tumor tissues such as blood stains and fat were removed to weigh the tumor and calculate the tumor growth inhibition rate. The average tumor weight of each group of mice is used as an indicator of efficacy. Tumor growth inhibition rate (%)=(1−the average tumor weight of the treatment group/the average tumor weight of the model group)×100%.

[2] = system: transplanted tumor of mouse Lewis lung cancer; assay: Transplanted tumor of mouse Lewis lung cancer; conditions: for Tumor Volume (mm3) (d 1) / Tumor Volume (mm3) (d30) / Relative Tumor Proliferation Rate (T/C) / Relative Tumor Volume (RTV): title prints KM mouse H22 cells; for Tumor Volume (mm3) (d30): d 30; for Body Weight (g) (d1) / Body Weight (g) (d 15): mouse, in vivo
Experimental: Lewis lung cancer cells were cultured in a RPMI 1640 culture medium containing 10% fetal bovine serum at 37° C. in a 5% CO2 incubator. The cells in the logarithmic growth phase were subjected to trypsinization with 0.25% trypsin, then the cells were collected to be centrifugated to remove the obtained supernatant, then were washed twice with sterile normal saline. […] The Lewis cells were adjusted to 1×10^7/mL in concentration and stored in ice water. 75% ethanol was used to disinfect the skin under the right armpits of the mice, and each C57BL/6 mouse was soon inoculated subcutaneously with 0.2 ml of the cells at its right armpit.
In the Lewis lung cancer model, the mice inoculated with the tumor were randomly divided into groups with 10 mice in each group the next day of inoculation. The groups included: a model control group, a positive drug cyclophosphamide control group (CTX, 30 mg/kg), isovaleryl spiramycin I groups with doses of 13, 26 and 52 mg/kg; isovaleryl spiramycin II groups with doses of 13, 26 and 52 mg/kg; isovaleryl spiramycin III groups with doses of 13, 26 and 52 mg/kg. Each group was continuously administered intragastrically for 15 days with a dose of 20 ml/kg.
The tumor-bearing mice were weighed and sacrificed the next day after the last administration. The subcutaneous tumors were dissected and weighed. The average tumor weight of each group is calculated, and the tumor inhibition rate is calculated.
Tumor inhibition rate=(1−T/C)×100%
T: average tumor weight of the drug-administered group; C: average tumor weight of the blank control group.

[3] = PANC-1, 50 mg/kg (high dose) i.g. 30 days

With `CCC(=O)O[C@@H]1CC(=O)O[C@H](C)C/C=C/C=C/[C@H](O[C@H]2CC[C@H](N(C)C)[C@@H](C)O2)[C@H](C)C[C@H](CC=O)[C@H](O[C@@H]2O[C@H](C)[C@@H](O[C@H]3C[C@@](C)(O)[C@@H](OC(=O)CC(C)C)[C@H](C)O3)[C@H](N(C)C)[C@H]2O)[C@H]1OC` [Isovaleryl spiramycin III, isovaleryl spiramycin III] the “Tumor Weight” value ([1]; PANC-1, 25 mg/kg (medium dose) i.g. 30 days) was 1.66 ± 0.66 g, the “Inhibition Rate (tumor growth inhibition rate)” value ([1]; PANC-1, 25 mg/kg (medium dose) i.g. 30 days, listed as isovaleryl spiramycin III) was 39.08% and the “Inhibition Rate (tumor growth inhibition rate)” value [1, 3] was 61.78%. The “Tumor Weight” value [1, 3] was 1.03 ± 0.54 g, the “Relative Tumor Proliferation Rate (T/C)” value ([1]; PANC-1, high dose i.g. 30 days) was 34.91% and the “Relative Tumor Proliferation Rate (T/C)” value ([1]; PANC-1, low dose i.g. 30 days) was 75.03%. The “tumor volume and relative tumor volume compared with the model group” value ([1]; PANC-1, low, medium and high doses, P<0.05) was “significantly lower”, the “Relative Tumor Proliferation Rate (T/C)” value ([1]; PANC-1, medium dose i.g. 30 days) was 54.92% and the “Relative Tumor Proliferation Rate (T/C)” value ([1]; PANC-1 nude mice, 12.5 mg/kg) was 75.03%. For the same molecule, the “Relative Tumor Volume (RTV)” value ([1]; PANC-1 nude mice, 12.5 mg/kg) was 13.13 ± 3.15, the “Tumor Volume (mm3) (d 1)” value ([1]; PANC-1 nude mice, 12.5 mg/kg) was 137.99 ± 20.99 mm3 and the “Tumor Volume (mm3) (d30)” value ([1]; PANC-1 nude mice, 12.5 mg/kg) was 1758.49 ± 129.06 mm3. The “Relative Tumor Proliferation Rate (T/C)” value ([1]; PANC-1 nude mice, 25 mg/kg) was 54.92%, the “Relative Tumor Volume (RTV)” value ([1]; PANC-1 nude mice, 25 mg/kg) was 9.61 ± 1.66 and the “Tumor Volume (mm3) (d 1)” value ([1]; PANC-1 nude mice, 25 mg/kg) was 109.95 ± 13.42 mm3. The “Tumor Volume (mm3) (d30)” value ([1]; PANC-1 nude mice, 25 mg/kg) was 1043.33 ± 113.01 mm3, the “Relative Tumor Proliferation Rate (T/C)” value ([1]; PANC-1 nude mice, 50 mg/kg) was 34.90% and the “Relative Tumor Volume (RTV)” value ([1]; PANC-1 nude mice, 50 mg/kg) was 5.17 ± 0.64. For the same molecule, the “Tumor Volume (mm3) (d 1)” value ([1]; PANC-1 nude mice, 50 mg/kg) was 113.14 ± 9.02 mm3, the “Tumor Volume (mm3) (d30)” value ([1]; PANC-1 nude mice, 50 mg/kg) was 684.21 ± 115.00 mm3 and the “mouse weight compared with the model group” value ([1]; mouse, in vivo) was “no significant changes”. The “growth of Lewis lung cancer in mice” value ([2]; 13, 26 and 52 mg/kg i.g. 15 days) was “significantly inhibit”, the “Tumor Volume (mm3) (d 1)” value ([2]; dose 12.5 mg/kg) was 105.02 ± 31.31 mm3 and the “Tumor Volume (mm3) (d30)” value ([2]; dose 12.5 mg/kg) was 1270.87 ± 198.05 mm3. For the same molecule, the “Relative Tumor Proliferation Rate (T/C)” value ([2]; dose 12.5 mg/kg) was 84.57, the “Relative Tumor Volume (RTV)” value ([2]; dose 12.5 mg/kg) was 13.54 ± 6.73 and the “Inhibition Rate (%)” value ([2]; dose 13 mg/kg) was 35.46%. For the same molecule, the “Tumor Weight” value ([2]; dose 13 mg/kg) was 1.03 ± 0.18 g, the “Tumor Volume (mm3) (d 1)” value ([2]; dose 25 mg/kg) was 103.29 ± 29.09 mm3 and the “Tumor Volume (mm3) (d30)” value ([2]; dose 25 mg/kg) was 841.92 ± 385.16 mm3. For the same molecule, the “Relative Tumor Proliferation Rate (T/C)” value ([2]; dose 25 mg/kg) was 58.38, the “Relative Tumor Volume (RTV)” value ([2]; dose 25 mg/kg) was 9.35 ± 5.89 and the “Inhibition Rate (%)” value ([2]; dose 26 mg/kg) was 48.96%. The “Tumor Weight” value ([2]; dose 26 mg/kg) was 0.82 ± 0.34 g, the “Tumor Volume (mm3) (d 1)” value ([2]; dose 50 mg/kg) was 104.43 ± 23.09 mm3 and the “Tumor Volume (mm3) (d30)” value ([2]; dose 50 mg/kg) was 677.35 ± 237.77 mm3. The “Relative Tumor Proliferation Rate (T/C)” value ([2]; dose 50 mg/kg) was 41.81, the “Relative Tumor Volume (RTV)” value ([2]; dose 50 mg/kg) was 6.69 ± 2.56 and the “Inhibition Rate (%)” value ([2]; dose 52 mg/kg) was 57.54%. For the same molecule, the “Tumor Weight” value ([2]; dose 52 mg/kg) was 0.68 ± 0.18 g, the “Body Weight (g) (d1)” value ([2]; 13 mg/kg) was 19.62 ± 1.30 g and the “Body Weight (g) (d 15)” value ([2]; 13 mg/kg) was 22.52 ± 0.57 g. For the same molecule, the “Body Weight (g) (d1)” value ([2]; 26 mg/kg) was 19.58 ± 0.63 g, the “Body Weight (g) (d 15)” value ([2]; 26 mg/kg) was 22.28 ± 0.66 g and the “Body Weight (g) (d1)” value ([2]; 52 mg/kg) was 20.00 ± 0.60 g. The “Body Weight (g) (d 15)” value ([2]; 52 mg/kg) was 22.42 ± 1.66 g.
